Measured values reported in ChEMBL document CHEMBL3638960, “4,5-dihydro-oxazol-2yl derivatives” (2014).
pKi: −log10 of the molar value.

Target: Trace amine-associated receptor 1 (Mus musculus, UniProt Q923Y8)
Assay: Binding assay: Binding assay was performed at 4 C. in a final volume of 1 ml, and with an incubation time of 30 min. The radioligand [3H]-rac-2-(1,2,3,4-tetrahydro-1-naphthyl)-2-imidazoline was used at a concentration equal to the calculated Kd value of 60 nM to give a bound at around 0.1% of the total added radioligand concentration, and a specific binding which represented approximately 70-80% of the total binding. Non-specific binding was defined as the amount of [3H]-rac-2-(1,2,3,4-tetrahydro-1-naphthyl)-2-imidazoline bound in the presence of the appropriate unlabelled ligand (10 μM). Competing ligands were tested in a wide range of concentrations ([…]).

Sequence of Trace amine-associated receptor 1 (Q923Y8 whole entry): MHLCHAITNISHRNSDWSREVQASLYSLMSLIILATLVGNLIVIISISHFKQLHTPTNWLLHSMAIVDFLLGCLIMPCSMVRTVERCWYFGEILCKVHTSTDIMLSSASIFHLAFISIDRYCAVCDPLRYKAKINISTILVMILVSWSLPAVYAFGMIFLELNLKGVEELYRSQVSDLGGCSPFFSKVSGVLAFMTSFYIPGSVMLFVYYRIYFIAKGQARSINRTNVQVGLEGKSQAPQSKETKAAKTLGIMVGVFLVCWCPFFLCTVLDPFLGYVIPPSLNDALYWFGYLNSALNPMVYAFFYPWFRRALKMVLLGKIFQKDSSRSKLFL

pKi: 9.30
SMILES: NC1=N[C@@H](CCC2(c3ccccc3)CC2)CO1
